Source: US11840706B2, “Composition and method for generating a desired cell type and/or tissue type from hair follicular stem cells” (priority 2013, dated 2023)
“Also recorded” adds a separate entry of the source.

Test system: keratinocytes
Experiment: Effect of vanadium compounds on proliferation of keratinocytes (hair follicle culture, cell count)
Type: cell-based
Conditions: 14 days culture; for amount of proliferated keratinocytes relative to the control situation: 1 mg/ml in basic SFK growth medium, 31° C., control = SFK medium lacking a vanadium compound
Description: Method: Hair follicles were transferred to a 24-well culture disk containing dSFK with 500 mg/ml penicillin (Life Technologies B.V. Breda, The Netherlands) and 0.25 μg/ml streptomycin (Life Technologies B.V. Breda, The Netherlands), and placed for 14 days in a culture medium at 31° C. in a humidified atmosphere containing 5% CO2. Three different culture medium were used: • Treatment group oxovanadium (OVAN): The culture medium is a composition comprising a basic SFK growth serum (purchased from the supplier SFK, Enschede The Netherlands) supplemented with either 1 mg/ml of OVAN. • Treatment group bis (maltolato) oxovanadium (BMOV): The culture medium is a composition comprising a basic SFK growth serum (purchased from the supplier SFK, Enschede The Netherlands) supplemented with either 1 mg/ml of BMOV. • Control group: The control situation consists of a composition comprising the SFK basic growth serum but without the vanadium compounds (i.e. OVAN or BMOV).
The respective culture media were carefully removed every three days and replaced by fresh culture media. The cells remained attached to the hair follicles during this culture period. After 14 days the culture medium was removed and replaced by a 0.5 mg/ml trypsin, 0.2 mg/ml EDTA (ethylene diaminetetraacetic acid) solution (Life Technologies B.V. Breda, The Netherlands), and incubated for 5 minutes at 37° C. in this medium. After this incubation period clusters of cells were released from the hair follicles. These were harvested by centrifugation at 300 g at 4° C. for 5 minutes in an Eppendorf 5804R Centrifuge (VWR International, The Netherlands). Number of cells were counted and expressed as amount of proliferated cells per ml of culture medium.

| Compound | proliferation of keratinocytes, BMOV compared with OVAN (1 mg/ml each) | amount of proliferated keratinocytes relative to the control situation |
| --- | --- | --- |
| Cc1occc(=O)c1[O-].Cc1occc(=O)c1[O-].[O]=[V+2] [BMOV, bis(maltolato) oxovanadium] | greater number of proliferated cells relative to treatment with OVAN; also recorded: more potent than OVAN | enhanced proliferation; also recorded: significantly increased |
| oxovanadium |  | enhanced proliferation; also recorded: significantly increased |
